Test results as given in patent US20090227619A1, “Harmine derivatives, intermediates used in their preparations, preparation processes and use therefo” (priority 2003, published 2009).
Where two headings read alike, the source gives them in different places.

Assays:
HepG2 = assay: In vitro cytotoxicity, IC50 by MTT method, HepG2; type: cell-based, human; conditions: Homo sapiens
Protocol: (§1) Culture medium powder RPMI1640 was dissolved in a proper amount of tri-distilled water according to the instruction of the product. […] It was the basic culture solution. The complete culture solution was added with FBS having a final concentration of 10%, 100 U/ml penicillin and 100 µg/ml streptomycin. The solution was fully stirred by a magnetic blender, and the pH of the solution was adjusted to 6.8-7.0. The volume was kept constant. After being filtered and disinfected, the solution was kept into several containers which were sealed and stored at 4° C.
(§2) The cells were placed in a culture dish followed by the addition of complete culture liquid RPMI1640 and then cultured in a incubator comprising 5% CO2 at 37° C. In the exponential growth phase, the cells grew vigorously. If the culture liquid became yellow, the liquid should be replaced instantly.
(§3) The cells, at a concentration of 10^5/ml, were inoculated at a 96-pore culture plate. In each pore, 100 μl cells were inoculated. The cells were placed in a CO2 incubator until the cells were in the logarithmic growth phase. The samples to be tested were added according to the preset concentration gradient. For each gradient, the test was conducted at least three times. An equivalent amount of solvent for dissolving the samples was added in the control group. After 48 h of culture, each pore was added 20 μl MTT (5 mg/ml). The cells were cultured at 37° C. for 4 h. After the supernatant was carefully removed, 100 μl DMSO was added in each pore. The plate was agitated for about 10 minutes such that the precipitates were dissolved. After that, OD value was identified with a Microplate Reader at the wavelength of 490 nm. The survival rate of the cells at various concentrations was calculated according to the following formula:
(§4) Survival rate %=average OD value of the sample group/average OD value of the control group×100%
(§5) Plots of log survival rate of the cells vs. concentration of the medicament were constructed, and the IC50 value of each sample was calculated according to graphing methods.

Hela = assay: In vitro cytotoxicity, IC50 by MTT method, Hela; type: cell-based; conditions: Homo sapiens
Protocol: as §1, §2, §3, §4, §5

PLA-801 = assay: In vitro cytotoxicity, IC50 by MTT method, PLA-801; type: cell-based
Protocol: as §1, §2, §3, §4, §5

BGC-823 = assay: In vitro cytotoxicity, IC50 by MTT method, BGC-823; type: cell-based; conditions: Homo sapiens, BGC-823
Protocol: as §1, §2, §3, §4, §5

Bel-7402 = assay: In vitro cytotoxicity, IC50 by MTT method, Bel-7402; type: cell-based; conditions: Homo sapiens, Bel-7402
Protocol: as §1, §2, §3, §4, §5

Lovo = assay: In vitro cytotoxicity, IC50 by MTT method, Lovo; type: cell-based; conditions: Homo sapiens
Protocol: as §1, §2, §3, §4, §5

S180 sarcoma = conditions: S180 sarcoma; for Body weight of the animals, beginning, First time / Body weight of the animals, end, First time / Inhibition rate, First time / Weight of the tumor X ± SD, First time: ip × 10qd; for Inhibition rate (%) S180 sarcomata: comparison table 43, in vivo
NIH3T3 = assay: In vitro cytotoxicity, IC50 by MTT method, NIH3T3; type: cell-based; conditions: Mus musculus
Protocol: as §1, §2, §3, §4, §5

Lewis lung cancer = conditions: for Body weight of the animals, beginning, First time / Inhibition rate, First time / Weight of the tumor X ± SD, First time / Body weight of the animals, end, First time / Inhibition rate (%) Lewis cancer: Lewis lung cancer; for Body weight of the animals, end, First time: ip × 10qd; for Inhibition rate (%) Lewis cancer: comparison table 43, in vivo; for Anti-tumor activity compared with harmine (compound 1): Lewis lung cancer in mice, among 22 compounds tested;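 for all read-outs here: mice implanted subcutaneously in the axilla with Lewis lung tumor cells, treated starting the following day, killed roughly three weeks after implantation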

Row | Structure (SMILES) | Body weight of the animals, beginning, First time (S180 sarcoma; Dosage 50 (mg/ml)) | Body weight of the animals, end, First time (S180 sarcoma; Dosage 50 (mg/ml)) | Inhibition rate, First time (S180 sarcoma; Dosage 50 (mg/ml)) | Weight of the tumor X ± SD, First time (S180 sarcoma; Dosage 50 (mg/ml)) | Body weight of the animals, beginning, First time (S180 sarcoma; Dosage 100 (mg/ml)) | Body weight of the animals, end, First time (S180 sarcoma; Dosage 100 (mg/ml)) | Inhibition rate, First time (S180 sarcoma; Dosage 100 (mg/ml)) | Weight of the tumor X ± SD, First time (S180 sarcoma; Dosage 100 (mg/ml)) | Inhibition rate (%) S180 sarcomata (S180 sarcoma) | Body weight of the animals, beginning, First time (Lewis lung cancer; Dosage 50, ip × 10qd) | Inhibition rate, First time (Lewis lung cancer; Dosage 50, ip × 10qd) | Weight of the tumor X ± SD, First time (Lewis lung cancer; Dosage 50, ip × 10qd) | Body weight of the animals, end, First time (Lewis lung cancer; Dosage 100 (mg/ml)) | Body weight of the animals, beginning, First time (Lewis lung cancer; Dosage 100, ip × 10qd) | Inhibition rate, First time (Lewis lung cancer; Dosage 100, ip × 10qd) | Weight of the tumor X ± SD, First time (Lewis lung cancer; Dosage 100, ip × 10qd) | Inhibition rate (%) Lewis cancer (Lewis lung cancer) | IC50 (HepG2; HepG2, MTT, read-out: IC50) | IC50 (Hela; Hela, MTT, read-out: IC50) | Body weight of the animals, end, First time (Lewis lung cancer; Dosage 50 (mg/ml)) | also measured
1 | CCOC(=O)c1cc2c(cn1)[nH]c1ccccc12 [Compound 10, ethyl β-carboline-3-carboxylate] | 20.0 g | 26.4 g | 30.92% | 1.81 ± 0.20 g | 20.1 g | 25.5 g | 40.46% | 1.56 ± 0.17 g | 40.46% | 20.1 g | 32.92% | 1.63 ± 0.16 g | 23.6 g | 20.3 g | 41.98% | 1.41 ± 0.21 g | 41.98% | – | – | – | IC50 (HepG2; HepG2): 1250 µM; IC50 (Hela; HeLa): 60 µM; IC50 (PLA-801): 280 µM; IC50 (BGC-823): 1280 µM; IC50 (Bel-7402): 2910 µM; IC50 (Lovo; LoVo): 1010 µM; IC50 (NIH3T3; NIH3T3): 80 µM
2 | COC(=O)c1cc2c([nH]c3ccccc32)c(-c2ccccc2)n1 [Compound 14, methyl 1-phenyl-β-carboline-3-carboxylate] | 19.8 g | 26.7 g | 24.43% | 1.98 ± 0.28 g | 19.9 g | 25.5 g | 32.06% | 1.78 ± 0.20 g | 34.16% | 20.1 g | 27.57% | 1.76 ± 0.25 g | 23.1 g | 20.7 g | 34.16% | 1.60 ± 0.19 g | 32.06% | 1180 µM | 320 µM | 23.8 g | IC50 (PLA-801; PLA-801, MTT, read-out: IC50): 1900 µM; IC50 (BGC-823; BGC823, MTT, read-out: IC50): 1680 µM; IC50 (Bel-7402; BeI7402, MTT, read-out: IC50): > 5000 µM; IC50 (Lovo; Lovo, MTT, read-out: IC50): 2480 µM; IC50 (NIH3T3; NIH3T3, MTT, read-out: IC50): 490 µM; Anti-tumor activity compared with harmine (compound 1) (Lewis lung cancer): a little worse than or equivalent to that of harmines
3 | COC(=O)c1cc2c([nH]c3ccccc32)c(-c2ccc(OC)cc2)n1 [Compound 15, methyl 1-(4-methoxyphenyl)-β-carboline-3-carboxylate] | 19.8 g | 26.4 g | 23.66% | 2.00 ± 0.16 g | 19.9 g | 26.0 g | 35.50% | 1.69 ± 0.16 g | 32.10% | 20.4 g | 25.51% | 1.81 ± 0.28 g | 24.0 g | 20.3 g | 32.10% | 1.65 ± 0.17 g | 35.50% | > 3000 µM | > 3000 µM | 23.9 g | IC50 (PLA-801; PLA-801, MTT, read-out: IC50): > 3000 µM; IC50 (BGC-823; BGC823, MTT, read-out: IC50): > 3000 µM; IC50 (Bel-7402; BeI7402, MTT, read-out: IC50): > 3000 µM; IC50 (Lovo; Lovo, MTT, read-out: IC50): > 3000 µM; IC50 (NIH3T3; NIH3T3, MTT, read-out: IC50): > 3000 µM; Anti-tumor activity compared with harmine (compound 1) (Lewis lung cancer): a little worse than or equivalent to that of harmines
4 | CCOC(=O)c1cc2c3ccccc3n(CC)c2cn1 [Compound 31, ethyl 9-ethyl-β-carboline-3-carboxylate] | 19.7 g | 26.7 g | 28.04% | 1.88 ± 0.21 g | 20.0 g | 26.1 g | 37.02% | 1.65 ± 0.16 g | 36.21% | 20.6 g | 30.04% | 1.70 ± 0.12 g | 23.7 g | 20.5 g | 36.21% | 1.55 ± 0.22 g | 37.02% | – | – | 24.3 g | IC50 (HepG2; HepG2 cell strain, read-out: IC50 HepG2): 110 µM; IC50 (Hela; Hela cell strain, read-out: IC50 Hela): 140 µM; IC50 (PLA-801; PLA-801 cell strain, read-out: IC50 PLA-801): 170 µM; IC50 (BGC-823; BGC823 cell strain, read-out: IC50 BGC823): 140 µM; IC50 (Bel-7402; Bel7402 cell strain, read-out: IC50 Bel7402): 260 µM; IC50 (Lovo; Lovo cell strain, read-out: IC50 Lovo): 70 µM; IC50 (NIH3T3; NIH3T3 cell strain, read-out: IC50 NIH3T3): 100 µM
